The values below come from US20240366728A1, “Treatment of Diabetes Mellitus” (Carmot Therapeutics Inc., priority 2023, published 2024).

Series [1] in a line: pharmacokinetics in CD-1 mice, single SC injection. The settings on record: 1 mg/kg SC.
Method: Blood was kept on ice until centrifuged at 4600 rpm for five minutes at 4° C. Plasma was stored at −80° C. until analysis. Compounds were extracted from plasma and quantified against a standard curve using an AB Sciex 7500+LC-MS/MS system (FIG. 5).
In series [2] the test system is participants with obesity and participants with T2DM. Briefly: CT-868-003 crossover study: safety. The class given is in vivo, human. The settings on record: in vivo. The text has this:
Safety assessments of this study included treatment-emergent adverse events (TEAEs), serious adverse events (SAEs), adverse events of special interest (AESI), vital signs, 12-lead electrocardiogram (ECG), clinical lab evaluations, and physical exam.
Safety assessments which occurred throughout the entire study, included monitoring of incidence and severity of AEs, treatment-emergent AEs (TEAEs) and AEs of special interest (AESIs) (e.g., GI events, hypoglycemia), clinical laboratory abnormalities (ECGs, chemistry, hematology, and urinalysis), and changes in vital sign measurements (BP, heart rate, respiratory rate, and aural temperature).
AE terms recorded by the Investigator were coded to system organ class (SOC) and preferred term (PT) using the Medical Dictionary for Regulatory Activities (MedDRA) version 24.0. Severity was collected using the Common Terminology Criteria for AEs (CTCAE) version 5.0 Toxicity Grade. Events with missing severity were summarized as Grade 3. TEAEs summarized by severity counted each participant once for the maximum severity within each SOC and PT within each in-house treatment period and overall. TEAEs marked with a relationship to study treatment as definitely, probable, possible, or missing were considered as related TEAEs. Events with missing relationship to study treatment were summarized as related. The number and percentage of participants with TEAEs were summarized by MedDRA-coded SOCs and PTs.

The next series has as its system C57BL/6J-DIO mice. Briefly: intraperitoneal glucose tolerance test in DIO mice. The class given is in vivo, mouse. The settings on record: for efficacy in ipGTT eight hours post-drug administration (in words): C57BL/6J-DIO mice, single dose 2.4 nmol/kg.
Series [3] relates to lean C57BL/6J, GLP-1R+/+ and GLP-1R-/- mice. Briefly: single intracerebroventricular injection: food consumption and body weight. The settings on record: lean mice, single ICV 0.025 nmol, up to 72 h.
For the next series, the target named is human GLP-1R (Homo sapiens, UniProt P43220). Briefly: receptor internalization (Nano-Glo HiBiT), human GLP-1R. The class given is cell-based. Also on record: host or cells: HEK293. In general terms: With HiBiT, luminescence reflects the tagged protein that the partner subunit can reach.

Ends that are not written are not given here.

Chain of human GLP-1R (P43220 24-463): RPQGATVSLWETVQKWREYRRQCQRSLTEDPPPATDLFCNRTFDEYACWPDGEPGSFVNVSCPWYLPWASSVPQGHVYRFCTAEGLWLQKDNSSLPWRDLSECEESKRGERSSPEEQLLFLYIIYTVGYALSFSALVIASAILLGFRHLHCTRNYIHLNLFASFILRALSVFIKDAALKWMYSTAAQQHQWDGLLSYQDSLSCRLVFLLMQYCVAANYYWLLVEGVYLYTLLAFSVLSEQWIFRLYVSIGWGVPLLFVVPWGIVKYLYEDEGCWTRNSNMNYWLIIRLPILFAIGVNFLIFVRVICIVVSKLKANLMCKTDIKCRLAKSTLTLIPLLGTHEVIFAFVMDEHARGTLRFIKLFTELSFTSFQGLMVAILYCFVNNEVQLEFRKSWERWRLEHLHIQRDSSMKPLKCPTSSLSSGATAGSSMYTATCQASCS
Method for human GLP-1R: GLP-1R and GIPR internalization were measured using Promega's Nano-Glo® HiBit extracellular detection system (Promega Corporation; Madison, WI). Hek293 cells were transiently transfected with HiBiT-tagged hGLP-1R or hGIPR plasmids (Promega Corporation; Madison, WI). Cells were lifted using the TrypLE express enzyme (ThermoFisher Scientific) and plated at 80,000-100,000 cells per well in 96 well plates. Cells were then treated with Nano-Glo HibiT extracellular buffer containing LgBiT protein (1:100), and the Nano-Glo HiBiT extracellular substrate (1:50).
GLP-1R and GIPR internalization was measured using Promega's Nano-Glo® HiBit extracellular detection system (Promega Corporation; Madison, WI). HEK293 cells were transiently transfected with low quantities of HiBiT-tagged hGLP-1R or hGIPR plasmids (Promega Corporation; Madison, WI). The next day, cells were lifted using TrypLE express enzyme (ThermoFisher Scientific) and plated at 80,000-100,000 cells per well in 96 well plates.

As to `CCCCCCCCCCCCCCCC(=O)N[C@@H](CCC(=O)NCCCC[C@H](NC(=O)[C@H](C)NC(=O)[C@H](C)NC(=O)[C@H](CCC(N)=O)NC(=O)CNC(=O)[C@H](CCC(=O)O)NC(=O)[C@H](CC(C)C)NC(=O)[C@H](Cc1ccc(O)cc1)NC(=O)[C@H](CO)NC(=O)[C@H](CO)NC(=O)[C@@H](NC(=O)[C@H](CC(=O)O)NC(=O)[C@H](CO)NC(=O)[C@@H](NC(=O)[C@H](Cc1ccccc1)NC(=O)[C@@H](NC(=O)CNC(=O)[C@H](CCC(=O)O)NC(=O)[C@H](C)NC(=O)[C@@H](N)Cc1cnc[nH]1)[C@@H](C)O)[C@@H](C)O)C(C)C)C(=O)N[C@@H](CCC(=O)O)C(=O)N[C@@H](Cc1ccccc1)C(=O)N[C@H](C(=O)N[C@@H](C)C(=O)N[C@@H](Cc1c[nH]c2ccccc12)C(=O)N[C@@H](CC(C)C)C(=O)N[C@H](C(=O)N[C@@H](CCCNC(=N)N)C(=O)NCC(=O)N[C@@H](CCCNC(=N)N)C(=O)NCC(=O)O)C(C)C)[C@@H](C)CC)C(=O)O` [liraglutide, Liraglutide, reference compound], in series [1], the “times more exposure than CT-859” value was determined as 6 times. In series [2], the “AEs of Special Interest (AESI) Total” value is 4 (40.0) n (%); the Abdominal pain is reported as 0 n (%); the Anaemia was 0 n (%); the “Any AESIs, Grade 2” value is listed as 1 (25.0%) n (%). Further, in series [2], the Arthralgia is on record as 0 n (%), the “At Least 1 Study Drug Related TEAE” value is on record as 3 (30.0) n (%), the “At Least 1 TEAE” value was 7 (70.0) n (%) and the Back pain is recorded as 0 n (%). Further, in series [2], the “Blood and lymphatic system disorders” value is reported as 0 n (%); the Chills is recorded as 0 n (%); the Coagulation test abnormal was 0 n (%); the Constipation was 0 n (%). Besides, in series [2], the Decreased appetite is given as 0 n (%), the Diarrhoea was 0 n (%), the Dizziness was 0 n (%) and the Eructation is listed as 0 n (%). For the same compound, in series [2], the Gastroesophageal reflux disease was 0 n (%); the “General disorders and administration site conditions” value was 0 n (%); the Headache is given as 0 n (%); the Hypoglycemia is 3 (30.0) n (%). In addition, in series [2], the Infections and infestations is listed as 0 n (%); the “Injection Site Reaction” value is 0 n (%); the Injection site haemorrhage was 0 n (%); the Injection site reactions is listed as 0 n (%). For the same compound, in series [2], the Investigations was 0 n (%); the “Musculoskeletal and connective tissue disorders” value is given as 0 n (%); the Nervous system disorders is listed as 0 n (%); the Peripheral swelling is recorded as 0 n (%). For the same compound, in series [2], the Rash is listed as 0 n (%), the SAEs is listed as 0 n (%), the Skin hyperpigmentation is listed as 0 n (%) and the “TEAEs leading to drug discontinuation” value was 0 n (%). Also, in series [2], the “Treatment Discontinuation” value is given as 0 n (%), the Urinary tract infection is on record as 0 n (%), the Vomiting is listed as 0 n (%) and the “participants with Grade 1 hypoglycemia events” value was 3 participants.
As for Exendin-4 [Ex-4, reference compound], the “efficacy in ipGTT eight hours post-drug administration (in words)” value in the series on C57BL/6J-DIO mice was “no longer effective”. Also, the “food consumption and body weight after ICV injection (in words)” value (shortened to “food consumption and body weight”) is on record as “started to lose efficacy by 48 hours” in series [3] and “significant reduction of cumulative food consumption” in series [3] (listed as exendin-4).
Turning to “FG-EGT-FTS-DLS-KQM-EEE-AVR-LFI-EWL-LAG-GPS-SGA-PPPS-NH2 (FGEGTFTSDLSKQMEEEAVRLFIEWLLAGGPSSGAPPPS-NH2) [Ex-Phe1, reference compound]”, in the series on C57BL/6J-DIO mice, the “glucose tolerance and body weight vs exendin-4 (in words)” value is “improves glucose tolerance and decreases body weight more than exendin-4”; the “efficacy in ipGTT eight hours post-drug administration (in words)” value is “remained efficacious”. Besides, the “signalling profile at GLP-1R (in words)” value in the series with human GLP-1R is reported as “cAMP-biased agonist that prevents receptor internalization”. For the same compound, the “food consumption and body weight” value in series [3] is reported as “remained efficacious”. In series [3] (listed as exendin-Phe1), the “food consumption and body weight” value was “greater reduction of food intake and much more prolonged body weight reduction as compared to exendin-4”.
